{"source": "patent US20080207505A1", "about": "“Bna Conjugates and Methods of Use” (priority 2005, published 2008)", "test_system": "normal dogs", "experiment": "Oral administration of hBNP-021 versus native hBNP in normal dogs (randomized crossover)", "conditions": "dog, oral 350 ug/kg", "experimental": "Immediately prior to oral dosing, the powder (either hBNP or hBNP conjugate) was dissolved in a buffered formulation to a concentration of 1.25 mg/mL.\nMAP and blood samplings were repeated at 10, 30, 60, 120, 180, and 240 minutes after oral administration. Blood samples were collected in pre-chilled EDTA tubes and immediately placed on ice and centrifuged at −4° C. Plasma was stored at −80° C. until analysis. After extraction, plasma cANP, cBNP, hBNP and cGMP were assessed by radioimmunoassay as previously described (Saito, Y. et al. 1989; Kambayashi, Y. et al, 1990).\nResults are expressed as mean ±SEM. Data were assessed by 1-way ANOVA for comparisons within groups followed by post hoc Dunnett's test. Two-way ANOVA was used for comparisons between groups, followed by Bonferroni posttest. Student's paired t test was performed for single comparisons between groups (Graph-Pad Prism software 4.0). Statistical significance was accepted at a value of P<0.05."}
{"smiles": "CC[C@H](C)[C@@H]1NC(=O)[C@H](CCCNC(=N)N)NC(=O)[C@H](CC(=O)O)NC(=O)[C@H](CCSC)NC(=O)[C@H](CCCCN)NC(=O)[C@H](CCCNC(=N)N)NC(=O)CNC(=O)[C@H](Cc2ccccc2)NC(=O)[C@@H](NC(=O)CNC(=O)[C@H](CO)NC(=O)CNC(=O)[C@H](CCC(N)=O)NC(=O)[C@@H](NC(=O)[C@H](CCSC)NC(=O)[C@H](CCCCN)NC(=O)[C@@H]2CCCN2C(=O)[C@@H](N)CO)C(C)C)CSSC[C@@H](C(=O)N[C@@H](CCCCN)C(=O)N[C@H](C(=O)N[C@@H](CC(C)C)C(=O)N[C@@H](CCCN=C(N)N)C(=O)N[C@@H](CCCN=C(N)N)C(=O)N[C@@H](Cc2cnc[nH]2)C(=O)O)C(C)C)NC(=O)CNC(=O)[C@H](CC(C)C)NC(=O)CNC(=O)[C@H](CO)NC(=O)[C@H](CO)NC(=O)[C@H](CO)NC(=O)[C@H](CO)NC1=O", "note": "[Native hBNP, reference compound]", "values": [{"measurement": "plasma hBNP after oral administration", "result": "detected in lower levels"}]}
